EP2992880A1, “Use of heme oxygenase 1 inducers and cannabinoid 2 receptor or delta-opioid receptor agonists in inflammatory pain” (Fundació Institut de Recerca de l'Hospital de la Santa Creu …, priority 2014, dated 2016)
Read-outs that look alike come from different tables or passages of the source.

Columns and labels:
[1] = tested on: CB2R; assay: Western blot of CB2R protein in dorsal root ganglia of CFA-injected mice; assay type: in vivo; conditions: CoPP treatment of CFA-injected mice (Fig. 8)
Description: (§1) Animals were sacrificed at 0 days (naive) and after CFA-injection by cervical dislocation. Tissues from the ipsilateral section of the dorsal root ganglia (L3 to L5) were removed immediately after killing, frozen in liquid nitrogen, and stored at -80°C until assay. Samples from five animals were pooled into one experimental sample to obtain enough protein levels for performing Western blot analysis. The HO-1, DOR and CB2R protein levels were analyzed by Western blot. […]
(§2) The proteins were electrophoretically transferred onto PVDF membrane for 120 min, blocked with PBS + 5% nonfat dry milk, and subsequently incubated overnight at 4°C with polyclonal rabbit anti-HO-1 (1:300, Stressgen, Ann Arbor, MI), anti-DOR (1:2500, Chemicon-Millipore) or anti-CB2R (1:500, Abcam, Cambridge, United Kingdom). The proteins were detected by a horseradish peroxidase-conjugated anti-rabbit secondary antibody (GE Healthcare, Little Chalfont, Buckinghamshire, United Kingdom) and visualized with chemiluminescence reagents (ECL kit; GE Healthcare) and by exposure onto hyperfilm (GE Healthcare). The intensity of blots was quantified by densitometry. […]
(§3) Finally, in another set of experiments we evaluated the effects of CoPP on the expression of HO-1, DOR and CB2R in the ipsilateral site of the dorsal root ganglia from CFA-injected mice, by using Western blot assay. […]

[2] = visceral pain; cited from earlier work
[3] = tested on: DOR; assay: Western blot of DOR protein in dorsal root ganglia of CFA-injected mice; assay type: in vivo; conditions: CoPP treatment of CFA-injected mice; P < 0.001 (Fig. 7)
Description: as §1, §2, §3

[4] = neuropathic pain; cited from earlier work
[5] = tested on: HO-1; assay: Western blot of HO-1 protein in dorsal root ganglia of CFA-injected mice; assay type: in vivo; conditions: CoPP treatment of CFA-injected mice; P < 0.001 (Fig. 6)
Description: as §1, §2, §3

[6] = inflammatory pain; cited from earlier work

cobalt (III) protoporphyrin IX chloride [CoPP]
peripheral expression of CB2R in the dorsal root ganglia from CFA-injected mice [1]: remains unaltered
effect of CoPP on the antinociceptive effect of morphine treatment [2]: does not alter
decreased protein levels of DOR in the dorsal root ganglia from CFA-injected mice [3]: avoided
effect of CoPP on the antinociceptive effect of DPDPE [4]: decreased
effect of CoPP on the antinociceptive effect of JWH-015 [4]: decreased
effect of CoPP on the antinociceptive effect of morphine [4]: increases
dorsal root ganglia expression of HO-1 [5]: significantly increased
effect of CoPP on the antinociceptive effect of morphine [6]: increases
